One molecule from patent publication US20240122926A1, “APELIN RECEPTOR MODULATORS FOR TREATING MUSCLE CONDITIONS” (priority 2022, published 2024) can be followed below.

What all share (format): in vivo, mouse
Experiment [1] has as its system aged (18-month-old) mice. The experiment in a line: Cardiotoxin (CTX)-induced muscle injury, histology of tibialis (cross-sectional area, centrally nucleated fibers). On the procedure:
Impairment of muscle regeneration can contribute to age-related muscle weakness. This is particularly true in aged individuals who engage in physical activity. Exercise-induced muscle hypertrophy is linked to the capacity of muscle stem cells to be activated and promote regeneration.
Mice were i.p injected with buprenorphine (Centravet, 0.1 mg/kg) 30 minutes before injury and the day after. The day of the injury, mice were anesthetized with isoflurane inhalation and hindlimbs were shaved. […]
Mouse muscle samples were dissected and cryopreserved in OCT frozen in liquid nitrogen cooled isopentane. […] Images were captured using a digital camera (Nanozoomer, Hamamatsu) attached to a motorized fluorescence microscope or using Olympus VS120 Virtual Microscopy Slide Scanning System. The area covered by eMHC-positive fibers and degenerated area was determined manually across the entire sections using the VS-ASW FL software measurement tools. The size of myofibers with central nuclei was calculated from laminin/DAPI staining on all fibers of the section and area determination were performed across the entire sections, using an automated image processing algorithm developed internally using the MetaXpress software (Molecular Devices).

Another experiment deals with young (3-month-old) mice. Put plainly: Cardiotoxin (CTX)-induced muscle injury, transcript levels, young mice. The protocol: (§1) Mice were i.p injected with buprenorphine (Centravet, 0.1 mg/kg) 30 minutes before injury and the day after. The day of the injury, mice were anesthetized with isoflurane inhalation and hindlimbs were shaved. Then, 10 μM of cardiotoxin (CTX, Latoxan, #L8102) was injected through two injections of 25 μl into the left tibialis muscle and two injections of 50 μl into the left gastrocnemius muscle, using a 22-gauge needle (Hamilton). Mice were euthanized 3 and 7 days after injury by cervical dislocation, muscles (PBS- and CTX-injected) were cut in two parts, one being snap frozen into liquid nitrogen for total RNA extraction and the other part being embedded into OCT, frozen in isopentane cooled with liquid nitrogen for histological analysis.

In experiment [2] the test system is aged (18-month-old) mice. The experiment in a line: Cardiotoxin (CTX)-induced muscle injury, transcript levels, aged mice. The note with it: for MyoD transcript level: 3 and 7 days. The protocol:
as §1

The mark [3] stands for this setting: tibialis anterior, 7 days, both BGE-105 dosages.

`CSCC[C@H](NC(=O)[C@@H]1CCCN1C(=O)CNC(=O)[C@H](CCCCN)NC(=O)[C@H](Cc1c[nH]cn1)NC(=O)[C@H](CO)NC(=O)[C@H](CC(C)C)NC(=O)[C@H](CCCNC(=N)N)NC(=O)[C@@H]1CCCN1C(=O)[C@H](CCCNC(=N)N)NC(=O)[C@@H]1CCC(=O)N1)C(=O)N1CCC[C@H]1C(=O)N[C@@H](Cc1ccccc1)C(=O)O` [Pyr^1-Apelin-13]: the “cross-sectional area of the tibialis” value in the experiment on aged (18-month-old) mice [1] (3 and 7 days post cardiotoxin, BA1 (50 mg/kg/d) and BA2 (200 mg/kg/d)) is “significant increase”. For the same molecule, the “amount of centrally nucleated myofibers (CNM)” value with aged (18-month-old) mice [1] (18-month-old mice after cardiotoxin, significant at the higher BGE-105 dose (200 mg/kg/day)) is listed as “significant increase”. In addition, the Myf5 transcript level entry was “no change” with young (3-month-old) mice (gastrocnemius, 3 or 7 days); “no difference” in the experiment with young (3-month-old) mice (tibialis, 3 or 7 days); “no significant change” in the experiment on aged (18-month-old) mice [2] (gastrocnemius, 3 or 7 days). In addition, the MyoD transcript level result is reported as “no change” with young (3-month-old) mice (gastrocnemius, 3 or 7 days); “no significant increase” in the experiment on young (3-month-old) mice (tibialis, 3 or 7 days); “significant increase” in the experiment with aged (18-month-old) mice [2] (gastrocnemius, both BGE-105 dosages); “significant increase” in the experiment with aged (18-month-old) mice [2] (tibialis anterior, both BGE-105 dosages). Besides, the MyoG transcript level result with young (3-month-old) mice (gastrocnemius, 3 or 7 days) is reported as “no change”; with young (3-month-old) mice (tibialis, 3 or 7 days) it was “no difference”; with aged (18-month-old) mice [2] (gastrocnemius, 3 or 7 days), “no significant change”; in the experiment with aged (18-month-old) mice [2] (setting [3]) it was “significant increase”. Also, the Pax7 transcript level result is “no change” in the experiment on young (3-month-old) mice (gastrocnemius, 3 or 7 days); “no change” with young (3-month-old) mice (tibialis, 3 or 7 days); “no significant change” in the experiment on aged (18-month-old) mice [2] (gastrocnemius, 3 or 7 days); “significant increase” in the experiment on aged (18-month-old) mice [2] (tibialis anterior, 7 days, BGE-105 50 and 200 mg/kg/day P.O., apelin 0.5 mol/kg/day injection). The MyHC8 transcript level result is given as “non-significant increase” in the experiment on young (3-month-old) mice (gastrocnemius, 3 days, both BGE-105 dosages); “no significant change” with young (3-month-old) mice (tibialis, 3 or 7 days); “does not show a change” with aged (18-month-old) mice [2] (gastrocnemius, any time point). Moreover, the MyHC3 transcript level entry with young (3-month-old) mice (tibialis, 3 or 7 days) is “no significant change”; in the experiment on aged (18-month-old) mice [2] (setting [3]) it was “significant increase”.
